# Tested on: LXRα and/or LXRβ
# Assay: LXR/LXRE co-transfection assay (luciferase reporter, CV-1 cells)
# Type: cell-based, human
# Conditions: IC50 or EC50 for LXR (LXRα and/or LXRβ, not distinguished), tested as described in Example 109, CV-1 cells
# In short: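 Transient co-transfection of CV-1 cells with full-length human LXRα or LXRβ plus RXRα expression plasmids and an LXREx1-Tk-luciferase reporter; compounds (10 μM screen, ≤1% DMSO) incubated 20 h at 37 °C. Luminescence read after lysis; EC50/IC50 from 8-point half-log curves, efficacy relative to a high control or DMSO.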
row,Structure (SMILES),EC50
1,"CC(C)(O)c1nn(-c2ccccc2Cl)c(-c2ccc(-c3cccc(S(C)(=O)=O)c3)cn2)c1Cl [Example 128, 2-(4-chloro-1-(2-chlorophenyl)-5-(5-(3-(methylsulfonyl)phenyl)pyridin-2-yl)-1H-pyrazol-3-yl)propan-2-ol]",1000 to 10000 nM
2,"CN(CC(N)=O)C(=O)c1cc(-c2ccc(-c3cccc(S(C)(=O)=O)c3)s2)n(-c2ccccc2Cl)n1 [Example 724, N-(2-amino-2-oxoethyl)-1-(2-chlorophenyl)-N-methyl-5-{5-[3-(methylsulfonyl)phenyl]-2-thienyl}-1H-pyrazole-3-carboxamide]",1000 to 10000 nM
3,"CC(C)(O)c1cc(-c2ccc(-c3cccc(S(C)(=O)=O)c3)s2)n(-c2ncccc2C(F)(F)F)n1 [Example 1178, 2-(5-{5-[3-(methylsulfonyl)phenyl]-2-thienyl}-1-[3-(trifluoromethyl)pyridin-2-yl]-1H-pyrazol-3-yl)propan-2-ol]",< 1000 nM
4,"Cc1cc(-c2cccc(S(C)(=O)=O)c2)cnc1-n1nc(C(C)(C)O)c(Cl)c1-c1ccccc1Cl [Example 145, 2-(4-chloro-5-(2-chlorophenyl)-1-(3-methyl-5-(3-(methylsulfonyl)phenyl)pyridin-2-yl)-1H-pyrazol-3-yl)propan-2-ol]",< 1000 nM
5,"CCN(Cc1ccncc1)Cc1cc(-c2ccc(-c3cccc(S(C)(=O)=O)c3)s2)n(-c2ccccc2Cl)n1 [Example 485, N-{[1-(2-chlorophenyl)-5-{5-[3-(methylsulfonyl)phenyl]-2-thienyl}-1H-pyrazol-3-yl]methyl}-N-(pyridin-4-ylmethyl)ethanamine]",< 1000 nM
6,CS(=O)(=O)c1cccc(-c2ccc(-c3cc(C(F)(F)F)nn3-c3ccccc3Cl)cc2CN2CCOCC2)c1 [Example 1148],1000 to 10000 nM
7,"COC(=O)c1cc(-c2ccccc2Cl)n(-c2ccc(-c3cccc(S(C)(=O)=O)c3)cc2)n1 [Example 1218, methyl 5-(2-chlorophenyl)-1-[3′-(methylsulfonyl)biphenyl-4-yl]-1H-pyrazole-3-carboxylate]",< 1000 nM
8,"CC(C)(O)c1cc(-c2ccc(-c3cccc(S(N)(=O)=O)c3)s2)n(-c2cc(Cl)ccc2Cl)n1 [Example 1214, 3-{5-[1-(2,5-dichlorophenyl)-3-(1-hydroxy-1-methylethyl)-1H-pyrazol-5-yl]-2-thienyl}benzenesulfonamide]",1000 to 10000 nM
9,"COC(=O)c1cc(-c2ccc(-c3cccc(S(=O)(=O)C(C)C)c3)s2)n(-c2ncccc2C(F)(F)F)n1 [Example 1170, methyl 5-(5-{3-[(1-methylethyl)sulfonyl]phenyl}-2-thienyl)-1-[3-(trifluoromethyl)pyridin-2-yl]-1H-pyrazole-3-carboxylate]",< 1000 nM
10,"CS(=O)(=O)c1cccc(-c2ccc(-c3cc(C(=O)NCC(F)(F)F)nn3-c3ccccc3Cl)s2)c1 [Example 1161, 1-(2-chlorophenyl)-5-{5-[3-(methylsulfonyl)phenyl]-2-thienyl}-N-(2,2,2-trifluoroethyl)-1H-pyrazole-3-carboxamide]",< 1000 nM
11,"CC(=O)c1cc(-c2ccccc2Cl)n(-c2ccc(-c3cccc(S(C)(=O)=O)c3)cc2)n1 [Example 1224, 1-{5-(2-chlorophenyl)-1-[3′-(methylsulfonyl)biphenyl-4-yl]-1H-pyrazol-3-yl}ethanone]",< 1000 nM
12,"CC(C)(O)c1cc(-c2ccccc2Cl)n(-c2ccc(-c3cccc(S(C)(=O)=O)c3)cc2Cl)n1 [Example 114, 2-(1-(3-chloro-3′-(methylsulfonyl)biphenyl-4-yl)-5-(2-chlorophenyl)-1H-pyrazol-3-yl)propan-2-ol]",< 1000 nM
13,"CN(Cc1ccsc1)Cc1cc(-c2ccc(-c3cccc(S(C)(=O)=O)c3)s2)n(-c2ccccc2Cl)n1 [Example 544, 1-[1-(2-chlorophenyl)-5-{5-[3-(methylsulfonyl)phenyl]-2-thienyl}-1H-pyrazol-3-yl]-N-methyl-N-(3-thienylmethyl)methanamine]",1000 to 10000 nM

# Continued, values first:
row,EC50,Structure (SMILES)
1,< 1000 nM,"CC(C)(O)c1cc(-c2ccc(-c3cc(C(F)(F)F)nn3-c3ccccc3Cl)s2)cc(S(C)(=O)=O)c1 [Example 1318, 2-[3-{5-[1-(2-chlorophenyl)-3-(trifluoromethyl)-1H-pyrazol-5-yl]-2-thienyl}-5-(methylsulfonyl)phenyl]propan-2-ol]"
2,1000 to 10000 nM,"CC(C)(O)c1cc(-c2ccc(-c3ccc(S(N)(=O)=O)cc3)cc2)n(-c2ccccc2Cl)n1 [Example 1306, 4′-[1-(2-chlorophenyl)-3-(1-hydroxy-1-methylethyl)-1H-pyrazol-5-yl]biphenyl-4-sulfonamide]"
3,< 1000 nM,"CC(C)(O)c1cc(-c2ccc(-c3cc(C(F)(F)F)nn3-c3cc(Cl)ccc3Cl)s2)cc(S(C)(=O)=O)c1 [Example 1308, 2-[3-{5-[1-(2,5-dichlorophenyl)-3-(trifluoromethyl)-1H-pyrazol-5-yl]-2-thienyl}-5-(methylsulfonyl)phenyl]propan-2-ol]"
4,< 1000 nM,"CC(C)CNC(=O)c1cc(-c2ccc(-c3cccc(S(C)(=O)=O)c3)cc2Cl)n(-c2cccnc2C(F)(F)F)n1 [Example 1388, 5-(3-chloro-3′-(methylsulfonyl)biphenyl-4-yl)-N-isobutyl-1-(2-(trifluoromethyl)pyridin-3-yl)-1H-pyrazole-3-carboxamide]"
5,< 1000 nM,"Cc1cc(-c2cccc(S(C)(=O)=O)c2)ccc1-c1c(Cl)c(C(C)(C)O)nn1-c1cccnc1C(F)(F)F [Example 1391, 2-(4-chloro-5-(3-methyl-3′-(methylsulfonyl)biphenyl-4-yl)-1-(2-(trifluoromethyl)pyridin-3-yl)-1H-pyrazol-3-yl)propan-2-ol]"
6,< 1000 nM,"CC(=O)c1cc(-c2ccc(-c3cccc(S(C)(=O)=O)c3)s2)n(-c2c(Cl)cccc2Cl)n1 [Example 1242, 1-[1-(2,6-dichlorophenyl)-5-{5-[3-(methylsulfonyl)phenyl]-2-thienyl}-1H-pyrazol-3-yl]ethanone]"
7,< 1000 nM,"CC(C)(O)c1nn(-c2ccc(-c3cccc(S(C)(=O)=O)c3)cc2Cl)c(-c2ccccc2C(F)(F)F)c1Cl [Example 1421, 2-(4-chloro-1-(3-chloro-3′-(methylsulfonyl)biphenyl-4-yl)-5-(2-(trifluoromethyl)phenyl)-1H-pyrazol-3-yl)propan-2-ol]"
8,1000 to 10000 nM,"Cc1cc(-c2cc(C(C)(C)O)nn2-c2c(Cl)cccc2Cl)ccc1-c1cccc(S(C)(=O)=O)c1 [Example 1398, 2-(1-(2,6-dichlorophenyl)-5-(2-methyl-3′-(methylsulfonyl)biphenyl-4-yl)-1H-pyrazol-3-yl)propan-2-ol]"
9,< 1000 nM,"CS(=O)(=O)c1cccc(-c2ccc(-c3c(Cl)c(C(=O)NCC(F)(F)F)nn3-c3cccnc3C(F)(F)F)c(Cl)c2)c1 [Example 1403, 4-chloro-5-(3-chloro-3′-(methylsulfonyl)biphenyl-4-yl)-N-(2,2,2-trifluoromethyl)-1-(2-(trifluoromethyl)pyridin-3-yl)-1H-pyrazole-3-carboxamide]"
10,< 1000 nM,"CS(=O)(=O)c1cccc(-c2ccc(-c3cc(C4(O)CC4)nn3-c3ccccc3Cl)s2)c1 [Example 1245, 1-[1-(2-chlorophenyl)-5-{5-[3-(methylsulfonyl)phenyl]-2-thienyl}-1H-pyrazol-3-yl]cyclopropanol]"
11,< 1000 nM,"CC(C)(O)c1nn(-c2ccccc2Cl)c(-c2ccc(-c3cccc(S(C)(=O)=O)c3)s2)c1Br [Example 1278, 2-[4-bromo-1-(2-chlorophenyl)-5-{5-[3-(methylsulfonyl)phenyl]-2-thienyl}-1H-pyrazol-3-yl]propan-2-ol]"
12,1000 to 10000 nM,"CC(C)(O)c1cc(-c2ccccc2Cl)n(-c2ccc(-c3cccc(S(C)(=O)=O)c3)nc2)n1 [Example 1246, 2-[5-(2-chlorophenyl)-1-(6-[3-(methylsulfonyl)phenyl]pyridin-3-yl}-1H-pyrazol-3-yl]propan-2-ol]"
13,< 1000 nM,"Cc1c(Cl)cccc1-n1nc(C(C)(C)O)cc1-c1ccc(-c2cccc(S(C)(=O)=O)c2)s1 [Example 1340, 2-[1-(3-chloro-2-methylphenyl)-5-{5-[3-(methylsulfonyl)phenyl]-2-thienyl}-1H-pyrazol-3-yl]propan-2-ol]"
14,1000 to 10000 nM,"CS(=O)(=O)c1cc(-c2ccc(-c3cc(C(F)(F)F)nn3-c3cc(Cl)ccc3Cl)s2)ccc1OCCN1CCOCC1 [Example 1259, 4-(2-{[4-{5-[1-(2,5-dichlorophenyl)-3-(trifluoromethyl)-1H-pyrazol-5-yl]-2-thienyl}-2-(methylsulfonyl)phenyl]oxy}ethyl)morpholine]"
15,1000 to 10000 nM,"CC(C)(O)c1cc(-c2ccc(-c3cccc4[nH]ccc34)cc2)n(-c2ccccc2Cl)n1 [Example 1286, 2-{1-(2-chlorophenyl)-5-[4-(1H-indol-4-yl)phenyl]-1H-pyrazol-3-yl}propan-2-ol]"
16,1000 to 10000 nM,"CC(C)(O)c1cc(-c2ccc(-c3cccc(S(C)(=O)=O)c3)s2)n(-c2cc(C(F)(F)F)ccc2Cl)n1 [Example 1347, 2-(1-[2-chloro-5-(trifluoromethyl)phenyl]-5-{5-[3-(methylsulfonyl)phenyl]-2-thienyl}-1H-pyrazol-3-yl)propan-2-ol]"
17,< 1000 nM,"CS(=O)(=O)c1cccc(-c2ccc(-n3nc(C(O)(C(F)(F)F)C(F)(F)F)cc3-c3ccccc3Cl)cc2)c1 [Example 1225, 2-{5-(2-chlorophenyl)-1-[3′-(methylsulfonyl)biphenyl-4-yl]-1H-pyrazol-3-yl}-1,1,1,3,3,3-hexafluoropropan-2-ol]"
18,< 1000 nM,"CC(C)(O)c1cc(-c2ccc(-c3cccc(S(C)(=O)=O)c3)s2)n(-c2cc(Cl)ccc2F)n1 [Example 1336, 2-[1-(5-chloro-2-fluorophenyl)-5-{5-[3-(methylsulfonyl)phenyl]-2-thienyl}-1H-pyrazol-3-yl]propan-2-ol]"
19,1000 to 10000 nM,"CCOC(=O)COc1cccc(-c2ccc(-c3cc(C(C)(C)O)nn3-c3ccccc3Cl)cc2)c1 [Example 1297, ethyl ({4′-[1-(2-chlorophenyl)-3-(1-hydroxy-1-methylethyl)-1H-pyrazol-5-yl]biphenyl-3-yl}oxy)acetate]"
